Measured values as given in article PMC8850549 (Toxicology Reports, 2022).
Several values for one entry are separate records, joined by “and”; a condition that tells them apart may be missing. Identical values can stand only once. Entries after “also recorded” stand apart in the source; their conditions may differ. Like-named read-outs stand apart in the source and are kept apart here.

How the values were obtained:
[1] = test system: Salmonella typhimurium TA1535; experiment: Bacterial reverse mutation test; type: cell-based; details: for mutagenic response (increase in mutation frequencies): with rat liver S9, preincubation and plate incorporation; for fold increase in mutation frequencies: rat liver S9, 5000 μg/plate
E. coli WP2 uvrA = experiment: Bacterial reverse mutation test; type: cell-based; details: for mutagenic response (increase in mutation frequencies): with rat liver S9, preincubation and plate incorporation
[2] = test system: Salmonella typhimurium TA100; experiment: Bacterial reverse mutation test; type: cell-based; details: for mutagenic response (increase in mutation frequencies): with rat liver S9, preincubation and plate incorporation
TA1535 = details: cited from earlier work
TA98 = experiment: Bacterial reverse mutation test; type: cell-based, Salmonella typhimurium; details: under any condition (preincubation or plate incorporation, with or without S9)
TA1537 = experiment: Bacterial reverse mutation test; type: cell-based, Salmonella typhimurium; details: under any condition (preincubation or plate incorporation, with or without S9)
[3] = test system: Salmonella typhimurium and E. coli strains; experiment: Bacterial reverse mutation test; type: cell-based; details: rat liver S9, solvent water
bacterial mutagenicity = details: cited from earlier work
[4] = plate incorporation, solvent DMSO, rat liver S9, at 5000 μg/plate only
[5] = preincubation, solvent water, rat liver S9, 5000 μg/plate

CCCN(CCC)N=O [NDPA, N-nitrosodipropylamine]
mutagenic response (increase in mutation frequencies) [1]: relevant increases | mutagenic response (increase in mutation frequencies) (E. coli WP2 uvrA): relevant increases | mutagenic response (increase in mutation frequencies) [2]: relevant increases

CCN(CC)N=O [NDEA, N-nitrosodiethylamine]
mutagenicity (TA1535; hamster S9): mutagenic | mutagenicity (TA1535; rat S9): not with rat S9 | fold increase in mutation frequencies (above threshold) [1, 4]: > 3 fold | fold change with water compared with DMSO as solvent ([1]; preincubation, rat liver S9): slightly increased fold changes; also recorded: slightly higher mutation frequencies | fold increase in mutation frequencies ([1]; preincubation, solvent DMSO): ~5 fold and 4 fold | fold increase in mutation frequencies ([1]; preincubation, solvent water): ~9 fold | mutagenic response (increase in mutation frequencies) [1]: exponential increase in mutation frequencies | fold increase in mutation frequencies (E. coli WP2 uvrA; plate incorporation, solvent DMSO, rat liver S9, top concentration 5000 μg/plate): 12 fold | fold change with water compared with DMSO as solvent (E. coli WP2 uvrA; preincubation, rat liver S9): slightly increased fold changes; also recorded: slightly higher mutation frequencies | fold increase in mutation frequencies (E. coli WP2 uvrA; preincubation, solvent DMSO, rat liver S9, 5000 μg/plate): ~30 fold | fold increase in mutation frequencies (E. coli WP2 uvrA; [5]): ~39 fold | mutagenic response (increase in mutation frequencies) (E. coli WP2 uvrA): exponential increase in mutation frequencies | mutagenic response (TA98): no response | fold increase in mutation frequencies (above threshold) [2, 4]: > 2 fold | fold change with water compared with DMSO as solvent ([2]; preincubation, rat liver S9): no change | fold increase in mutation frequencies [2, 5]: about 4 fold | mutagenic response (increase in mutation frequencies) [2]: exponential increase in mutation frequencies | mutagenic response (TA1537): no response

CN(C)N=O [NDMA, N-nitrosodimethylamine]
mutagenicity (TA1535; hamster S9): mutagenic | mutagenicity (TA1535; rat S9): not with rat S9 | detection of mutagenicity ([3]; plate incorporation protocol): fails; also recorded: no clear positive response | detection of mutagenicity ([3]; preincubation protocol): allows the detection of mutagenicity | detection of bacterial mutagenicity (bacterial mutagenicity; plate incorporation): failed | detection of bacterial mutagenicity (bacterial mutagenicity; preincubation protocol): allowed to detect

CCCCN(CCCC)N=O [NDBA, N-nitrosodibutylamine]
fold induction, plate incorporation compared with preincubation ([1]; rat liver S9, solvent DMSO): higher fold inductions using the plate incorporation protocol | mutagenic response (increase in mutation frequencies) [1]: relevant increases | fold induction, plate incorporation compared with preincubation (E. coli WP2 uvrA; rat liver S9, solvent DMSO): higher fold inductions using the plate incorporation protocol | mutagenic response (increase in mutation frequencies) (E. coli WP2 uvrA): relevant increases | mutagenic response (increase in mutation frequencies) [2]: relevant increases
